# Test results: patent US20080009418A1, “Selective Inhibitors” (Alchemia LTD., priority 2004, published 2008)
# Columns and labels:
# Human δ-opioid (DOP) = target: T1, Human δ-opioid (DOP) (Homo sapiens, UniProt P41143); assay: Radioligand binding, human δ-opioid (DOP) membranes, FlashPlate, [3H]-Bremazocine; conditions: compound at 10 μM, [3H]-Bremazocine
# T1 construct: purchased Perkin Elmer Biosignal
# How it was run: (§1)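 Cloned human receptor membranes were coated onto FlashPlate wells and incubated with radioligand and compound (added from a 0.5 mM DMSO daughter plate) for 1 hour at room temperature in the dark. Scintillation counting gave percent inhibition, with DMSO defining total and reference ligand defining non-specific binding.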
# Human κ-Opioid (KOP) = target: T2, Human κ-Opioid (KOP) (Homo sapiens, UniProt P41145); assay: Radioligand binding, human κ-opioid (KOP) membranes, filtration, [3H]-Diprenorphine; conditions: compound at 10 μM, [3H]-Diprenorphine
# T2 construct: purchased Perkin Elmer Biosignal
# How it was run: (§2)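 Membranes from cloned human receptors were incubated with compound and radioligand for 1 hour at room temperature. Bound ligand was collected on 0.3% PEI-soaked filters, washed with cold 50 mM Tris-HCl pH 7.4, and counted by scintillation. Percent inhibition was computed against DMSO totals and reference-ligand nonspecific wells.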
# Human Melanocortin (MC3) = target: T3, Human Melanocortin (MC3) (Homo sapiens, UniProt P41968); assay: Radioligand binding, human melanocortin MC3 membranes, FlashPlate, [125I]-NDP-αMSH; conditions: compound at 10 μM, [125I]-NDP-αMSH
# T3 construct: purchased Perkin Elmer Biosignal
# How it was run: as §1
# Human Melanocortin (MC4) = target: T4, Human Melanocortin (MC4) (Homo sapiens, UniProt P32245); assay: Radioligand binding, human melanocortin MC4 membranes, FlashPlate, [125I]-NDP-αMSH; conditions: compound at 10 μM, [125I]-NDP-αMSH
# T4 construct: purchased Perkin Elmer Biosignal
# How it was run: as §1
# Human melanocortin (MC5) = target: T5, Human melanocortin (MC5) (Homo sapiens, UniProt P33032); assay: Radioligand binding, human melanocortin MC5 membranes, FlashPlate, [125I]-NDP-αMSH; conditions: compound at 10 μM, [125I]-NDP-αMSH
# T5 construct: purchased Perkin Elmer Biosignal
# How it was run: as §1
# [1] = target: T6, Human melanin-concentrating hormone (MCH1) (Homo sapiens, UniProt Q99705); assay: Radioligand binding, human melanin-concentrating hormone MCH1 membranes, FlashPlate, [125I]-S36057; conditions: compound at 10 μM
# T6 construct: purchased Perkin Elmer Biosignal
# How it was run: as §1
# Human μ-opioid (MOP) = target: T7, Human μ-opioid (MOP) (Homo sapiens, UniProt P35372); assay: Radioligand binding, human μ-opioid (MOP) membranes, FlashPlate, [3H]-Naloxone; conditions: compound at 10 μM, [3H]-Naloxone
# T7 construct: purchased Perkin Elmer Biosignal
# How it was run: as §1
# Human neurokinin (NK1) = target: T8, Human neurokinin (NK1) (Homo sapiens, UniProt P25103); assay: Radioligand binding, human neurokinin NK1 membranes, filtration, [125I]-Substance P; conditions: compound at 10 μM, [125I]-Substance P
# T8 construct: purchased Perkin Elmer Biosignal
# How it was run: as §2
# [2] = target: T9, Human neuropeptide Y (NPY-Y1) (Homo sapiens, UniProt P25929); assay: Radioligand binding, human neuropeptide Y NPY-Y1 membranes, FlashPlate, [125I]-PYY; conditions: compound at 10 μM, [125I]-PYY
# T9 construct: purchased Perkin Elmer Biosignal
# T9 sequence (P25929 1-384): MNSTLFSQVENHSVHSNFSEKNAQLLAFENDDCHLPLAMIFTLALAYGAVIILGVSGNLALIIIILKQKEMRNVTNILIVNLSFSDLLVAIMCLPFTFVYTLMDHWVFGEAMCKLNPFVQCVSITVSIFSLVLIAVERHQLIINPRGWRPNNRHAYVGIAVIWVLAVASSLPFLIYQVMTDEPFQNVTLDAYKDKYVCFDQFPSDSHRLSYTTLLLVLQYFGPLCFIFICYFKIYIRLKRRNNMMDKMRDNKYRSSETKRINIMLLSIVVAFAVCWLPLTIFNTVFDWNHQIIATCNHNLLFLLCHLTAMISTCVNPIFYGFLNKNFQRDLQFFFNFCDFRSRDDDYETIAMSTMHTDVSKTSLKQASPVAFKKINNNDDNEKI
# How it was run: as §1
# Human opioid (ORL1) = target: T10, Human opioid (ORL1) (Homo sapiens, UniProt P41146); assay: Radioligand binding, human opioid ORL1 membranes, FlashPlate, [125I]-Nociceptin; conditions: compound at 10 μM, [125I]-Nociceptin
# T10 construct: purchased Perkin Elmer Biosignal
# How it was run: as §1
# Mouse urotensin (mUR2) = target: T11, Mouse urotensin (mUR2) (Mus musculus, UniProt Q8VIH9); assay: Radioligand binding, mouse urotensin mUR2 membranes, FlashPlate, [125I]-Urotensin II; conditions: compound at 10 μM, [125I]-Urotensin II
# T11 construct: purchased Perkin Elmer Biosignal
# T11 sequence (Q8VIH9 1-385): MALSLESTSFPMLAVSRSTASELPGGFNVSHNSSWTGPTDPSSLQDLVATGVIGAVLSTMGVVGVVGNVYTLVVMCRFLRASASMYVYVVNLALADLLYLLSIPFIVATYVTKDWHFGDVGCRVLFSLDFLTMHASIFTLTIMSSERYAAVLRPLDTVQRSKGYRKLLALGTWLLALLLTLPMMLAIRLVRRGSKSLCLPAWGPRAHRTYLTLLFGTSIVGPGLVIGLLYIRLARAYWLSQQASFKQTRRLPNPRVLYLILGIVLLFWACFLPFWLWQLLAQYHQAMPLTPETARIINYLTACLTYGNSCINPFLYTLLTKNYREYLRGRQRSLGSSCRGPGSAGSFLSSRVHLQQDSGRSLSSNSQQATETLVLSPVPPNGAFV
# How it was run: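 Cloned mouse urotensin (mUR2) receptor membranes from Perkin Elmer Biosignal were immobilized in FlashPlate microplates using a proprietary coating. Each well got 19.5 μl buffer, then 0.5 μl of DMSO, reference ligand, or compound. Adding 5 μl of [125I]-Urotensin II, diluted to 5× final concentration in binding buffer, started binding. Plates were sealed with TopSeal-A and incubated 1 hour at room temperature in the dark. Wells were counted for 30 seconds each on a TopCount after a 60-second delay, and percentage inhibition was calculated.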
# T6 sequence (Q99705 whole entry): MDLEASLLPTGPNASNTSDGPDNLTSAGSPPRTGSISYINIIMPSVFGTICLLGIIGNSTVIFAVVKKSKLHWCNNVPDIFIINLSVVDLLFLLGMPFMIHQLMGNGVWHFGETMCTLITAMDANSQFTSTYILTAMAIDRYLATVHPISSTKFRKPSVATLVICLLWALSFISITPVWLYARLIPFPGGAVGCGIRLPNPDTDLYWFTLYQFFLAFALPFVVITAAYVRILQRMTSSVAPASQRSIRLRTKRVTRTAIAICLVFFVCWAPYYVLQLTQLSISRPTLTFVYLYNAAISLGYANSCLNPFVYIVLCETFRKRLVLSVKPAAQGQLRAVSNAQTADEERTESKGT
# T3 sequence (P41968 whole entry): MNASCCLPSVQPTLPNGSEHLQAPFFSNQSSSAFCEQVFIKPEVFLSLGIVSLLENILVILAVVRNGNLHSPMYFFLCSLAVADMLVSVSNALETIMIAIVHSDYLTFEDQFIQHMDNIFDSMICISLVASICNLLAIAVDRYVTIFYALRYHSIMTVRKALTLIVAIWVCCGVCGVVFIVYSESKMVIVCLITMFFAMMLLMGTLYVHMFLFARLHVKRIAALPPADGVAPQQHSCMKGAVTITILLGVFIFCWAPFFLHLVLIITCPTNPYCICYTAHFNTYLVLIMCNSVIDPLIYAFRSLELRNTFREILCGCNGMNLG
# T2 sequence (P41145 whole entry): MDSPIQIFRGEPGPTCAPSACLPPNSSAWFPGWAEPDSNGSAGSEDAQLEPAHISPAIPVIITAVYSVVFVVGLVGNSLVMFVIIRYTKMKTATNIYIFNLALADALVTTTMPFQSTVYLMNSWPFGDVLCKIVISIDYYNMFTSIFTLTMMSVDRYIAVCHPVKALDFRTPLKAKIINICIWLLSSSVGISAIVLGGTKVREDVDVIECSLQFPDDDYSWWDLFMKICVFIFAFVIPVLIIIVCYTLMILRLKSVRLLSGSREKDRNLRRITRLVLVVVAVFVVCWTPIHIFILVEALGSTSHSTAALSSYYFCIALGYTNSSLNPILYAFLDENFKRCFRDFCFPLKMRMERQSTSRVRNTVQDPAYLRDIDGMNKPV
# T7 sequence (P35372 whole entry): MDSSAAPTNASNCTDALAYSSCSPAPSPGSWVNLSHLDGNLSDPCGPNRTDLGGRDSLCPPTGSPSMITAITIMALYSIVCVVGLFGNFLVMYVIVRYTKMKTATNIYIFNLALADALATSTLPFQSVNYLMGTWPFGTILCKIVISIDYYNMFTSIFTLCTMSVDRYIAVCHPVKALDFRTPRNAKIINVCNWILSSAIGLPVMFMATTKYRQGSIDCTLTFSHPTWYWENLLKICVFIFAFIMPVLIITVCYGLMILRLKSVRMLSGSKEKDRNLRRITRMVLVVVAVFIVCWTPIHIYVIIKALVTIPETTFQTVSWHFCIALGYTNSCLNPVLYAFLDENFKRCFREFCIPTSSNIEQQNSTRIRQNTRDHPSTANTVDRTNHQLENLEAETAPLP
# T1 sequence (P41143 whole entry): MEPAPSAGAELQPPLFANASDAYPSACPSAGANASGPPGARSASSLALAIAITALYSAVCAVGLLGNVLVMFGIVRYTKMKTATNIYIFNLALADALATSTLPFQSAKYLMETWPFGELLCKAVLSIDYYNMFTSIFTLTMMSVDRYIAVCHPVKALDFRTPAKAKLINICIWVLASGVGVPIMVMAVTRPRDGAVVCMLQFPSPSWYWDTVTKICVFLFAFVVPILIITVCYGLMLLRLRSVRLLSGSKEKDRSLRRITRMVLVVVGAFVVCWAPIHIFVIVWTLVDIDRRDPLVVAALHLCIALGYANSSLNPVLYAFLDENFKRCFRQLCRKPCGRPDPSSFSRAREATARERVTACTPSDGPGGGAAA
# T5 sequence (P33032 whole entry): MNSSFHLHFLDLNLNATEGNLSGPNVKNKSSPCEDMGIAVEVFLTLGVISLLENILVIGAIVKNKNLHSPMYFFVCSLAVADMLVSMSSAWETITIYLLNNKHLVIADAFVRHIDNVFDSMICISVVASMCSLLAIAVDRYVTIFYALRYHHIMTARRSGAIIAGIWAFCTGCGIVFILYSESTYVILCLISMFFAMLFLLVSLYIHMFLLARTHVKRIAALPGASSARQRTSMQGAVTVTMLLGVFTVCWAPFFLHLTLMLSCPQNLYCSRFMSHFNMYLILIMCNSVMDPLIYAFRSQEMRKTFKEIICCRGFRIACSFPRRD
# T4 sequence (P32245 whole entry): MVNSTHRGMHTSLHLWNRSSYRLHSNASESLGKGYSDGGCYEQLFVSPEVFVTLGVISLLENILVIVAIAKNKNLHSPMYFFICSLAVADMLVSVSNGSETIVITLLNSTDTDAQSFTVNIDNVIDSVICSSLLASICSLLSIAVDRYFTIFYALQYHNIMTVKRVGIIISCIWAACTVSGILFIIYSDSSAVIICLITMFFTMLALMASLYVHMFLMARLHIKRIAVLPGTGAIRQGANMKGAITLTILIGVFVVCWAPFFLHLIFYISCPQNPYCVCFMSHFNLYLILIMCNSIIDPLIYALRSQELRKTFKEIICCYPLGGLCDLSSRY
# T10 sequence (P41146 whole entry): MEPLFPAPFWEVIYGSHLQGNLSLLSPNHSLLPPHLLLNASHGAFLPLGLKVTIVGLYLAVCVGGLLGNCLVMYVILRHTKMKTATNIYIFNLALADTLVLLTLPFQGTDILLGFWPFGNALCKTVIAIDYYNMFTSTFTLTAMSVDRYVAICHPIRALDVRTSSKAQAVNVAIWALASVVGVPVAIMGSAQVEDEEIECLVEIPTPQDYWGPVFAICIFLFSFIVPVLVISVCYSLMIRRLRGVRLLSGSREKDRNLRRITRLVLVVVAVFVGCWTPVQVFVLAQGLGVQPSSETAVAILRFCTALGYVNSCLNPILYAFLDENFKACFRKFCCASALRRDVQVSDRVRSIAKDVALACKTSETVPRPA
# T8 sequence (P25103 whole entry): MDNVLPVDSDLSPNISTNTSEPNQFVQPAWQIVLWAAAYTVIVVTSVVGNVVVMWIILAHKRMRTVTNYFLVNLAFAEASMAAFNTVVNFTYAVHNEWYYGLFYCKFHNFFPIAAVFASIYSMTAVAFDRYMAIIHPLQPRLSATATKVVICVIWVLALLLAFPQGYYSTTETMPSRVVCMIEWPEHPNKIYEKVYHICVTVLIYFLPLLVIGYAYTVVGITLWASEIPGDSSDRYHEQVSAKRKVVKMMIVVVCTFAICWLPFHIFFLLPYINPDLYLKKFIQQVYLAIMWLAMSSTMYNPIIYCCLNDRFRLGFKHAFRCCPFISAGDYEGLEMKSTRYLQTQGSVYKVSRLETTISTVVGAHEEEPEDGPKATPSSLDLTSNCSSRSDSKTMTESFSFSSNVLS
smiles,measurement,setting,value
COC[C@H]1OC(OCc2ccccc2)[C@H](NC(=O)CCCN)[C@@H](OCc2cccc(O)c2)[C@@H]1O (stereo partly shown) [compound 136],"A1 radioligand binding, percentage inhibition",Human δ-opioid (DOP),− (“−” indicates less than 50% inhibition at 10 μM)
same,"A2 radioligand binding, percentage inhibition",Human κ-Opioid (KOP),− (“−” indicates less than 50% inhibition at 10 μM)
same,"A3 radioligand binding, percentage inhibition",Human Melanocortin (MC3),− (“−” indicates less than 50% inhibition at 10 μM)
same,"A4 radioligand binding, percentage inhibition",Human Melanocortin (MC4),− (“−” indicates less than 50% inhibition at 10 μM)
same,"A5 radioligand binding, percentage inhibition",Human melanocortin (MC5),− (“−” indicates less than 50% inhibition at 10 μM)
same,"A6 radioligand binding, percentage inhibition",[1]; [125I]-S36057,− (“−” indicates less than 50% inhibition at 10 μM)
same,"A7 radioligand binding, percentage inhibition",Human μ-opioid (MOP),− (“−” indicates less than 50% inhibition at 10 μM)
same,"A8 radioligand binding, percentage inhibition",Human neurokinin (NK1),+ (“+” indicates greater than 50% inhibition at 10 μM)
same,"A9 radioligand binding, percentage inhibition",[2],− (“−” indicates less than 50% inhibition at 10 μM)
same,"A10 radioligand binding, percentage inhibition",Human opioid (ORL1),− (“−” indicates less than 50% inhibition at 10 μM)
same,"A11 radioligand binding, percentage inhibition",Mouse urotensin (mUR2),− (“−” indicates less than 50% inhibition at 10 μM)
CSC1OC(COCc2ccc3ccccc3c2)C(O)C(OCc2ccccc2)C1NC(=O)CCCN (stereo not shown) [compound 263],A1: inhibition of radioligand binding,Human δ-opioid (DOP); FlashPlate,− (“−” indicates less than 50% inhibition at 10 μM)
same,A2: inhibition of radioligand binding,Human κ-Opioid (KOP); filtration,− (“−” indicates less than 50% inhibition at 10 μM)
same,A3: inhibition of radioligand binding,Human Melanocortin (MC3); FlashPlate,− (“−” indicates less than 50% inhibition at 10 μM)
same,A4: inhibition of radioligand binding,Human Melanocortin (MC4); FlashPlate,− (“−” indicates less than 50% inhibition at 10 μM)
same,A5: inhibition of radioligand binding,Human melanocortin (MC5); FlashPlate,− (“−” indicates less than 50% inhibition at 10 μM)
same,A6: inhibition of radioligand binding,"[1]; [125I]-S36057, FlashPlate",− (“−” indicates less than 50% inhibition at 10 μM)
same,A7: inhibition of radioligand binding,Human μ-opioid (MOP); FlashPlate,− (“−” indicates less than 50% inhibition at 10 μM)
same,A8: inhibition of radioligand binding,Human neurokinin (NK1); filtration,+ (“+” indicates greater than 50% inhibition at 10 μM)
same,A9: inhibition of radioligand binding,[2]; FlashPlate,− (“−” indicates less than 50% inhibition at 10 μM)
same,A10: inhibition of radioligand binding,Human opioid (ORL1); FlashPlate,− (“−” indicates less than 50% inhibition at 10 μM)
same,A11: inhibition of radioligand binding,Mouse urotensin (mUR2); FlashPlate,− (“−” indicates less than 50% inhibition at 10 μM)
NCCCC(=O)NC1C(OCc2ccccc2)OC(COCc2ccc(Cl)cc2)C(O)C1OCc1ccccc1 (stereo not shown) [compound 380],A1: inhibition of radioligand binding,Human δ-opioid (DOP); human DOP membranes,− (“−” indicates less than 50% inhibition at 10 μM)
same,A2: inhibition of radioligand binding,Human κ-Opioid (KOP); human KOP membranes,− (“−” indicates less than 50% inhibition at 10 μM)
same,A3: inhibition of radioligand binding,Human Melanocortin (MC3); human MC3 membranes,− (“−” indicates less than 50% inhibition at 10 μM)
same,A4: inhibition of radioligand binding,Human Melanocortin (MC4); human MC4 membranes,+ (“+” indicates greater than 50% inhibition at 10 μM)
same,A5: inhibition of radioligand binding,Human melanocortin (MC5); human MC5 membranes,− (“−” indicates less than 50% inhibition at 10 μM)
same,A6: inhibition of radioligand binding,"[1]; [125I]-S36057, human MCH1 membranes",− (“−” indicates less than 50% inhibition at 10 μM)
same,A7: inhibition of radioligand binding,Human μ-opioid (MOP); human MOP membranes,− (“−” indicates less than 50% inhibition at 10 μM)
same,A8: inhibition of radioligand binding,Human neurokinin (NK1); human NK1 membranes,+ (“+” indicates greater than 50% inhibition at 10 μM)
same,A9: inhibition of radioligand binding,[2]; human NPY-Y1 membranes,− (“−” indicates less than 50% inhibition at 10 μM)
same,A10: inhibition of radioligand binding,Human opioid (ORL1); human ORL1 membranes,− (“−” indicates less than 50% inhibition at 10 μM)
same,A11: inhibition of radioligand binding,Mouse urotensin (mUR2); mouse mUR2 membranes,− (“−” indicates less than 50% inhibition at 10 μM)
CO[C@H]1[C@H](O)[C@@H](COCc2ccc3ccccc3c2)OC(OCc2ccc(Cl)cc2)[C@@H]1NC(=O)CNC(=N)N (stereo partly shown) [compound 97],"A1 radioligand binding, percentage inhibition",Human δ-opioid (DOP),− (“−” indicates less than 50% inhibition at 10 μM)
same,"A2 radioligand binding, percentage inhibition",Human κ-Opioid (KOP),− (“−” indicates less than 50% inhibition at 10 μM)
same,"A3 radioligand binding, percentage inhibition",Human Melanocortin (MC3),+ (“+” indicates greater than 50% inhibition at 10 μM)
same,"A4 radioligand binding, percentage inhibition",Human Melanocortin (MC4),+ (“+” indicates greater than 50% inhibition at 10 μM)
same,"A5 radioligand binding, percentage inhibition",Human melanocortin (MC5),+ (“+” indicates greater than 50% inhibition at 10 μM)
same,"A6 radioligand binding, percentage inhibition",[1]; [125I]-S36057,− (“−” indicates less than 50% inhibition at 10 μM)
same,"A7 radioligand binding, percentage inhibition",Human μ-opioid (MOP),− (“−” indicates less than 50% inhibition at 10 μM)
same,"A8 radioligand binding, percentage inhibition",Human neurokinin (NK1),+ (“+” indicates greater than 50% inhibition at 10 μM)
same,"A9 radioligand binding, percentage inhibition",[2],− (“−” indicates less than 50% inhibition at 10 μM)
same,"A10 radioligand binding, percentage inhibition",Human opioid (ORL1),+ (“+” indicates greater than 50% inhibition at 10 μM)
same,"A11 radioligand binding, percentage inhibition",Mouse urotensin (mUR2),− (“−” indicates less than 50% inhibition at 10 μM)
N=C(N)NCC(=O)N[C@H]1C(OCc2ccc(Cl)cc2)O[C@H](COCc2ccc(Cl)cc2)[C@@H](O)[C@@H]1OCc1ccc2ccccc2c1 (stereo partly shown) [compound 516],"A1: inhibition of radioligand binding, human δ-opioid (DOP)",Human δ-opioid (DOP),− (“−” indicates less than 50% inhibition at 10 μM)
same,"A2: inhibition of radioligand binding, human κ-opioid (KOP)",Human κ-Opioid (KOP),− (“−” indicates less than 50% inhibition at 10 μM)
same,"A3: inhibition of radioligand binding, human melanocortin (MC3)",Human Melanocortin (MC3),+ (“+” indicates greater than 50% inhibition at 10 μM)
same,"A4: inhibition of radioligand binding, human melanocortin (MC4)",Human Melanocortin (MC4),+ (“+” indicates greater than 50% inhibition at 10 μM)
same,"A5: inhibition of radioligand binding, human melanocortin (MC5)",Human melanocortin (MC5),+ (“+” indicates greater than 50% inhibition at 10 μM)
same,"A6: inhibition of radioligand binding, human melanin-concentrating hormone (MCH1)",[1]; [125I]-S36057,+ (“+” indicates greater than 50% inhibition at 10 μM)
same,"A7: inhibition of radioligand binding, human μ-opioid (MOP)",Human μ-opioid (MOP),− (“−” indicates less than 50% inhibition at 10 μM)
same,"A8: inhibition of radioligand binding, human neurokinin (NK1)",Human neurokinin (NK1),+ (“+” indicates greater than 50% inhibition at 10 μM)
same,"A9: inhibition of radioligand binding, human neuropeptide Y (NPY-Y1)",[2],− (“−” indicates less than 50% inhibition at 10 μM)
same,"A10: inhibition of radioligand binding, human opioid (ORL1)",Human opioid (ORL1); 10 µM,− (“−” indicates less than 50% inhibition at 10 μM)
same,"A11: inhibition of radioligand binding, mouse urotensin (mUR2)",Mouse urotensin (mUR2),− (“−” indicates less than 50% inhibition at 10 μM)
